{"source": "patent EP1298214A2", "about": "“Plant thioesterases” (Calgene LLC, priority 1990, dated 1991)", "key": {"[1]": {"test_system": "Bay seeds extractable C12-preferring acyl-ACP thioesterase and lauroyl-CoA hydrolysis activity", "test": "Extractable hydrolysis activity at two stages of Bay seed development", "type": "biochemical, Umbellularia californica", "conditions": "cpm ether-extractable radioactivity", "procedure": "(§1) To assay for C12 thioesterase activity the following mixture is incubated at 30° for 30 min: \"buffer\" comprising 7mM KH2PO4-KOH pH 8, 20% v/v glycerol, 1mM dithiothreitol (DTT), 0.1% v/v Triton X100; sample to be tested for activity in the same or similar buffer as the \"extraction buffer\" described in Example 2; and 5µl of ^14C-radiolabeled lauroyl-ACP substrate for a total volume of 100µl and final lauroyl-ACP concentration of 0.5µM. Lauroyl-ACP substrate is prepared according to the method of Rock et al (Methods in Enzymology (1981) 72:397-403), using ACP prepared from Escherichia coli by the method of Rock and Cronan (Methods in Enzymology (1981) 71:341-351). The laurate is radiolabeled in the carboxylate group at a specific radioactivity of 50-60µCi/µmol.\n(§2) The reaction is stopped by adding 0.5ml cold (0°) 10% v/v acetic acid. The fatty acid product of the hydrolytic enzyme action is extracted away from the unhydrolyzed substrate by adding 1ml diethyl ether and mixing vigorously. After settling for a few minutes the upper ether layer is transferred to 5ml scintillation fluid for determination of radioactivity by liquid scintillation spectrometry. Additional ether extractions may be performed to recover remaining traces of the reaction product for more accurate quantitation of the enzyme activity if desired. The amount of ether-extracted radioactivity is a direct measure of C12-preferring acyl-ACP thioesterase activity, provided the amount of enzyme is not sufficient to hydrolyze more than about 25% of the substrate. With greater activity than this the relationship between radioactivity in the ether layer and the quantity of enzyme becomes markedly nonlinear. The enzyme preparation must then be diluted appropriately to bring the activity into the linear range of the assay.\nFurther evidence that the C12-preferring acyl-ACP thioesterase is involved in the biosynthesis of laurate groups that predominate in the Bay seeds comes from a comparison of the extractable activity of the enzyme at two different stages of seed development. As shown in the following table, Table 5, very young seeds, which contain only long-chain fatty acids and insignificant amounts of laurate, yield much less C12-preferring ACP thioesterase than older seeds that have accumulated significant amounts of laurate. Thus it appears that significant activity of this enzyme is only present when the seeds are accumulating laurate. Additionally, there appears to be much less difference in lauroyl-CoA hydrolysis activity, consistent with their being different enzymes as discussed above in Example 5."}, "[2]": {"biological_target": "T1, Bay C12-preferring acyl-ACP thioesterase (Umbellularia californica, UniProt Q41635)", "T1 sequence (Q41635 84-382)": "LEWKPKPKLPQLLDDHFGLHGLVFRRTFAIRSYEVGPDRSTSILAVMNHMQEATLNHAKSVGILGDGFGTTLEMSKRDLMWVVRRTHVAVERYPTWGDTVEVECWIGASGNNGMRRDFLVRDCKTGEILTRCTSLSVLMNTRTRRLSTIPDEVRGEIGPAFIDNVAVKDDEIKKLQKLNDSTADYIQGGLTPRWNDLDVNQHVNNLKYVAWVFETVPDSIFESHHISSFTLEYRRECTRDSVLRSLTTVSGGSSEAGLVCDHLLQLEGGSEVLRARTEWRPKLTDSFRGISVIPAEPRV", "test": "Substrate hydrolysis (ACP versus CoA) by peak gradient-eluted fraction of the ACP column", "type": "biochemical", "set-up": "This comprises the source tissue for enzyme extraction; from tissue; host or cells: cotyledons of immature Umbellularia californica seeds", "conditions": "cpm of ether-extractable product", "procedure": "as §1\n(§3) The reaction is stopped by adding 0.5ml cold (0°) 10% v/v acetic acid. […] After settling for a few minutes the upper ether layer is transferred to 5ml scintillation fluid for determination of radioactivity by liquid scintillation spectrometry. Additional ether extractions may be performed to recover remaining traces of the reaction product for more accurate quantitation of the enzyme activity if desired. The amount of ether-extracted radioactivity is a direct measure of C12-preferring acyl-ACP thioesterase activity, provided the amount of enzyme is not sufficient to hydrolyze more than about 25% of the substrate. […]"}, "[3]": {"test_system": "material which fails to bind the ACP column (Lauroyl-CoA hydrolysis activity)", "test": "Substrate hydrolysis (ACP versus CoA) by peak unbound fraction of the ACP column", "type": "biochemical, Umbellularia californica", "conditions": "Flow-through (nonbinding) fraction; cpm of ether-extractable product", "procedure": "as §1, §3"}, "[4]": {"test_system": "Cuphea C10-preferring acyl-ACP thioesterase", "test": "C10 acyl-ACP thioesterase inhibitor studies, material from Example 9A", "type": "biochemical, Cuphea hookeriana", "conditions": "preliminary inhibitor studies; for sensitivity of the thioesterase to the inhibitor (in words): concentration not given", "procedure": "Following the same general procedures as outlined in Example 1, to assay for C10 thioesterase activity, the following mixture is incubated at 30° for 10-60 min: 50µl sample to be tested in the same or similar \"extraction buffer\" described in Example 9A, and approximately 250pmol of [^14C]-radiolabeled acyl-ACP substrate, (usually decanoyl-ACP is labeled in the carboxylate group to 50-60µCi/µmol) in a total volume of […], for a final decanoyl-ACP concentration of 0.5-5.0µM, typically 5.0µM. The reaction is stopped by adding 0.5ml 10% (v/v) cold (4°) acetic acid and placing the reaction mixture on ice for a few minutes. The fatty acid product of the hydrolytic enzyme action is extracted away from the unhydrolyzed substrate by adding 2ml diethyl ether and mixing vigorously. The ether is transferred to 5ml scintillation fluid for scintillation counting. Additional ether extracts may be performed to recover remaining traces of product for more accurate quantitation of the activity if desired.\nAn acetone powder is prepared by grinding the seeds to a powder in a mortar and pestle under liquid nitrogen, and then grinding the powder in a mortar and pestle with cold acetone (at approximately -20°). The powder is collected by filtration and rinsed with cold ether to remove remaining traces of acetone. It is then extracted with 10ml of \"extraction buffer\" per gram of acetone powder weight (this and all subsequent steps at 0-4°) comprising 50mM KH2PO4-KOH pH 7.5, 10mM 2-mercaptoethanol. The homogenate is centrifuged at 11,000xg for 15 min at 4°, and the supernatant fraction used for subsequent purification steps after filtration through two layers of Miracloth (Calbiochem. Inc.; LaJolla, CA).\nThe supernatant fraction is then subjected to ammonium sulfate fractionation. The 40-60% saturation ammonium sulfate pellet (prepared as described in Example 2) is redissolved in \"buffer\" comprising 50mM KH2PO4-KOH pH 6.9, 10% (v/v) glycerol, and 10mM 2-mercaptoethanol, and dialyzed against this buffer to remove remaining ammonium sulfate. […]"}, "[5]": {"biological_target": "T2, Bay cotyledon C12-preferring acyl-ACP thioesterase (Umbellularia californica, UniProt Q41635)", "T2 construct": "This comprises the source tissue for enzyme extraction; from tissue; host or cells: cotyledons of immature Umbellularia californica seeds", "T2 sequence (Q41635 84-382)": "T1 sequence (Q41635 84-382)", "test": "C12-preferring acyl-ACP thioesterase inhibitor studies, Bay ammonium sulfate fraction", "type": "biochemical", "conditions": "for inhibition at 500 µM / inhibition at 5000 µM: read-out: Percent Inhibition; for sensitivity of the thioesterase to the thiol reagent (in words): 5mM, preliminary inhibitor studies", "procedure": "as §1, §2\nThe crude extract is subjected to ammonium sulfate fractionation as follows. Sufficient solid ammonium sulfate is gradually added with stirring over 30 min to achieve 70% saturation. The preparation is then stirred for a further 30 min. After centrifuging as described above, the pelleted material is resuspended in extraction buffer (2ml/g original tissue weight) and stirred for 10 min until dissolved. Ammonium sulfate is then added as before, but this time only sufficient to achieve 50% saturation. After centrifuging as before, the supernatant fraction is discarded. The pelleted material, which contains the C12-preferring acyl-ACP thioesterase, may be frozen by immersion in liquid nitrogen and then stored at -70° at this stage if desired. The resulting material is referred to as the \"ammonium sulfate fraction.\" Very little of the C12-preferring acyl-ACP thioesterase activity is lost if the pellet is frozen very rapidly.\nTable 1 below reports inhibition of Bay cotyledon C12-preferring acyl-ACP thioesterase by thiol reagents observed when an ammonium sulfate fraction (see, Example 2) was assayed (see, Example 1).\nAfter removal of dithiothreitol from an ammonium sulfate fraction preparation by passage through a small. column of G25-50 gel filtration medium (Pharmacia, Piscataway, NJ) the following assay results were observed."}, "[6]": {"conditions": "0.5mM added to assay, mean of duplicates, ether layer, control without addition 4322"}, "[7]": {"conditions": "5mM added to assay, after removal of dithiothreitol by G25-50 gel filtration, control 3776"}, "[8]": {"conditions": "5mM added to assay, after removal of dithiothreitol by G25-50 gel filtration"}, "[9]": {"conditions": "5mM added to assay, mean of duplicates, ether layer, control without addition 4322"}}, "note": "Like-named read-outs stand apart in the source and are kept apart here."}
{"smiles": "CCCCCCCCCCCC(=O)SCCNC(=O)CCNC(=O)[C@H](O)C(C)(C)COP(=O)(O)OP(=O)(O)OC[C@H]1O[C@@H](n2cnc3c(N)ncnc32)[C@H](O)[C@@H]1OP(=O)(O)O", "note": "[C12-CoA, lauroyl coenzyme A]", "values": [{"measurement": "Hydrolysis / Thioesterase Activity In Assays", "setting": "[1]; Normal Seeds (2g/cotyledon pair)", "result": "31,268 cpm"}, {"measurement": "Hydrolysis / Thioesterase Activity In Assays", "setting": "[1]; Young Seeds (0.5g/cotyledon pair)", "result": "29,995 cpm"}, {"measurement": "Activity on Substrate", "setting": "[2]", "result": 27, "unit": "cpm"}, {"measurement": "Activity on Substrate", "setting": "[3]", "result": 10808, "unit": "cpm"}]}
{"smiles": "CCN1C(=O)C=CC1=O", "note": "[N-ethylmaleimide]", "values": [{"measurement": "inhibition of the thioesterase (in words)", "setting": "[4]; 5mM", "result": "completely inhibited"}, {"measurement": "Mean Activity", "setting": "[5]; [6]", "result": 4320, "unit": "cpm"}, {"measurement": "inhibition at 500 µM", "setting": "[5]; 0.5mM added to assay", "result": 0, "unit": "%"}, {"measurement": "Mean Activity", "setting": "[5]; [7]", "result": 269, "unit": "cpm"}, {"measurement": "inhibition at 5000 µM", "setting": "[5]; [8]", "result": 93, "unit": "%"}, {"measurement": "Mean Activity", "setting": "[5]; [9]", "result": 103, "unit": "cpm"}, {"measurement": "inhibition at 5000 µM", "setting": "[5]; 5mM added to assay", "result": 98, "unit": "%"}, {"measurement": "sensitivity of the thioesterase to the thiol reagent (in words)", "setting": "[5]", "result": "almost completely inhibited"}]}
{"smiles": "NC(=O)CI", "note": "[iodoacetamide]", "values": [{"measurement": "sensitivity of the thioesterase to the inhibitor (in words)", "setting": "[4]", "result": "insensitive"}, {"measurement": "Mean Activity", "setting": "[5]; [6]", "result": 4180, "unit": "cpm"}, {"measurement": "inhibition at 500 µM", "setting": "[5]; 0.5mM added to assay", "result": 3, "unit": "%"}, {"measurement": "Mean Activity", "setting": "[5]; [7]", "result": 3851, "unit": "cpm"}, {"measurement": "inhibition at 5000 µM", "setting": "[5]; [8]", "result": 0, "unit": "%"}, {"measurement": "Mean Activity", "setting": "[5]; [9]", "result": 4047, "unit": "cpm"}, {"measurement": "inhibition at 5000 µM", "setting": "[5]; 5mM added to assay", "result": 6, "unit": "%"}, {"measurement": "sensitivity of the thioesterase to the thiol reagent (in words)", "setting": "[5]", "result": "insensitive"}]}
{"smiles": "O=S(=O)(F)Cc1ccccc1", "note": "[phenylmethylsulfonyl fluoride]", "values": [{"measurement": "sensitivity of the thioesterase to the inhibitor (in words)", "setting": "[4]", "result": "insensitive"}]}
